Test results from patent US20230107642A1 (Erasca, Inc., priority 2020, published 2023).

Target: T1, K-Ras G12C (Homo sapiens, UniProt P01116, G12C)
T1 construct: This protein contained 188 amino acids in total, including an N-terminal 6-Histidine tag; made in house; host or cells: E. coli BL21
Assay: CAF assay (% CAF; method in Example 7, not in this part)
Type: binding
Conditions: 1 h; for % CAF @ 10 uM, 1h: Table 3; for % CAF @ 10 μM, 1 h: Table 4

Row | Compound | % CAF @ 10 uM, 1h [%] | % CAF @ 10 μM, 1 h [%]
1 | C=CC(=O)N1CCN(c2nc(=O)n3c4c(c(-c5ccc(F)cc5F)c(CC)cc24)SCC3)[C@@H](C)C1 [Example 114, 7-((S)-4-acryloyl-2-methylpiperazin-1-yl)-10-(2,4-difluorophenyl)-9-ethyl-2,3-dihydro-5H-[1,4]thiazino[2,3,4-ij]quinazolin-5-one] | 92.8 | 
2 | C=CC(=O)N1CCN(c2nc(=O)n3c4c(c(-c5ccc(F)cc5F)c(C)cc24)SCC3)[C@@H](C)C1 [Example 115, 7-((S)-4-acryloyl-2-methylpiperazin-1-yl)-10-(2,4-difluorophenyl)-9-methyl-2,3-dihydro-5H-[1,4]thiazino[2,3,4-ij]quinazolin-5-one] | 94.1 | 
3 | C=CC(=O)N1CCN(c2nc(=O)n3c4c(c(-c5ccc(F)cc5F)c(Cl)cc24)SCC3)CC12CCNC2=O (stereo not drawn) [Example 116, 7-(6-acryloyl-1-oxo-2,6,9-triazaspiro[4.5]decan-9-yl)-9-chloro-10-(2,4-difluorophenyl)-2,3-dihydro-5H-[1,4]thiazino[2,3,4-ij]quinazolin-5-one] | 27.4 | 
4 | C=CC(=O)N1CCN(c2nc(=O)n3c4c(c(-c5ccc(F)cc5F)c(Cl)cc24)SCC3)C2CN(S(C)(=O)=O)CC21 (stereo not drawn) [Example 118, 7-(4-acryloyl-6-(methylsulfonyl)octahydro-1H-pyrrolo[3,4-b]pyrazin-1-yl)-9-chloro-10-(2,4-difluorophenyl)-2,3-dihydro-5H-[1,4]thiazino[2,3,4-ij]quinazolin-5-one] | 48.3 | 
5 | C[C@H]1CN(C(=O)/C=C/C(F)F)CCN1c1nc(=O)n2c3c(c(-c4ccc(F)cc4F)c(Cl)cc13)SCC2 [Example 119, 9-chloro-7-((S)-4-((E)-4,4-difluorobut-2-enoyl)-2-methylpiperazin-1-yl)-10-(2,4-difluorophenyl)-2,3-dihydro-5H-[1,4]thiazino[2,3,4-ij]quinazolin-5-one] | 97.1 | 
6 | C[C@H]1CN(C(=O)/C=C/C(F)F)CCN1c1nc(=O)n2c3c(c(-c4c(F)cc(F)cc4F)c(Cl)cc13)SCC2 [Example 120, (S,E)-9-chloro-7-(4-(4,4-difluorobut-2-enoyl)-2-methylpiperazin-1-yl)-10-(2,4,6-trifluorophenyl)-2,3-dihydro-5H-[1,4]thiazino[2,3,4-ij]quinazolin-5-one] | 95.9 | 
7 | CN(C)C/C=C/C(=O)N1CCN(c2nc(=O)n3c4c(c(-c5ccc(F)cc5F)c(Cl)cc24)SCC3)C[C@H]1C#N [Example 121, (2S)-4-(9-chloro-10-(2,4-difluorophenyl)-5-oxo-2,3-dihydro-5H-[1,4]thiazino[2,3,4-ij]quinazolin-7-yl)-1-((E)-4-(dimethylamino)but-2-enoyl)piperazine-2-carbonitrile] | 3.6 | 
8 | C=CC(=O)N1CCN(c2nc(=O)n3c4c(c(-c5ccc(F)cc5F)c(Cl)cc24)SCC3CN2CCN(CC)CC2)[C@@H](C)C1 (stereo partly drawn) [Example 122, 7-((S)-4-acryloyl-2-methylpiperazin-1-yl)-9-chloro-10-(2,4-difluorophenyl)-3-((4-ethylpiperazin-1-yl)methyl)-2,3-dihydro-5H-[1,4]thiazino[2,3,4-ij]quinazolin-5-one] | 80.9 | 
9 | C=C(F)C(=O)N1CCN(c2nc(=O)n3c4c(c(-c5ccc(F)cc5F)c(Cl)cc24)SCC3)C[C@H]1C#N [Example 125, (2S)-4-(9-chloro-10-(2,4-difluorophenyl)-5-oxo-2,3-dihydro-5H-[1,4]thiazino[2,3,4-ij]quinazolin-7-yl)-1-(2-fluoroacryloyl) piperazine-2-carbonitrile] | 94.5 | 
10 | C=CC(=O)N1CCN(c2nc(=O)n3c4c(c(-c5ccc(F)cc5F)c(Cl)cc24)SCC3CN2CCN(C)CC2)[C@@H](C)C1 (stereo partly drawn) [Example 126, 7-((S)-4-acryloyl-2-methylpiperazin-1-yl)-9-chloro-10-(2,4-difluorophenyl)-3-((4-methylpiperazin-1-yl)methyl)-2,3-dihydro-5H-[1,4]thiazino[2,3,4-ij]quinazolin-5-one] | 33.1 | 
11 | C=CC(=O)N1CCN(c2nc(=O)n3c4c(c(-c5cccc6cnn(C)c56)c(Cl)cc24)SCC3)[C@@H](C)C1 [Example 127, 7-((S)-4-acryloyl-2-methylpiperazin-1-yl)-9-chloro-10-(1-methyl-1H-indazol-7-yl)-2,3-dihydro-5H-[1,4]thiazino[2,3,4-ij]quinazolin-5-one] | 60 | 
12 | C=CC(=O)N1CCN(c2nc(=O)n3c4c(c(-c5ccc(F)cc5F)c(Cl)cc24)SCC3)CC12CNC2=O (stereo not drawn) [Example 128, 7-(5-acryloyl-1-oxo-2,5,8-triazaspiro[3.5]nonan-8-yl)-9-chloro-10-(2,4-difluorophenyl)-2,3-dihydro-5H-[1,4]thiazino[2,3,4-ij]quinazolin-5-one] | 62.7 | 
13 | C=CC(=O)N1C2CSCC1CN(c1nc(=O)n3c4c(c(-c5ccc(F)cc5F)c(Cl)cc14)SCC3)C2 [Example 129, 7-(9-acryloyl-3-thia-7,9-diazabicyclo[3.3.1]nonan-7-yl)-9-chloro-10-(2,4-difluorophenyl)-2,3-dihydro-5H-[1,4]thiazino[2,3,4-ij]quinazolin-5-one] | 95.3 | 
14 | C=CC(=O)N1CCN(c2nc(=O)n3c4c(c(-c5ccc(F)cc5F)c(Cl)cc24)SC[C@H]3COC)[C@@H](C)C1 [Example 130, (3R)-7-((S)-4-acryloyl-2-methylpiperazin-1-yl)-9-chloro-10-(2,4-difluorophenyl)-3-(methoxymethyl)-2,3-dihydro-5H-[1,4]thiazino[2,3,4-ij]quinazolin-5-one] | 94.5 | 94.5
15 | C=CC(=O)N1CCN(c2nc(=O)n3c4c(c(-c5ccc(F)cc5F)c(Cl)cc24)SCC3)C2CS(=O)(=O)CC21 (stereo not drawn) [Example 131, 7-(4-acryloyl-6,6-dioxidohexahydrothieno[3,4-b]pyrazin-1(2H)-yl)-9-chloro-10-(2,4-difluorophenyl)-2,3-dihydro-5H-[1,4]thiazino[2,3,4-ij]quinazolin-5-one] | 82.2 | 
16 | C=CC(=O)N1CCN(c2nc(=O)n3c4c(c(-c5ccc(F)cc5F)c(C#N)cc24)SCC3)[C@@H](C)C1 [Example 132, 7-((S)-4-acryloyl-2-methylpiperazin-1-yl)-10-(2,4-difluorophenyl)-5-oxo-2,3-dihydro-5H-[1,4]thiazino[2,3,4-ij]quinazoline-9-carbonitrile] | 91.9 | 
17 | C=CC(=O)N1CCN(c2nc(=O)n3c4c(c(-c5ccc(F)cc5F)c(Cl)cc24)SCC3)CC12CN(C)C2=O (stereo not drawn) [Example 133, 7-(5-acryloyl-2-methyl-1-oxo-2,5,8-triazaspiro[3.5]nonan-8-yl)-9-chloro-10-(2,4-difluorophenyl)-2,3-dihydro-5H-[1,4]thiazino[2,3,4-ij]quinazolin-5-one] | 51.9 | 
18 | C=CC(=O)N1CCN(c2nc(=O)n3c4c(c(-c5ccc(F)cc5F)c(Cl)cc24)SCC3)C2COCC21 (stereo not drawn) [Example 134, 7-(4-acryloylhexahydro-furo[3,4-b]pyrazin-1(2H)-yl)-9-chloro-10-(2,4-difluorophenyl)-2,3-dihydro-5H-[1,4]thiazino[2,3,4-ij]quinazolin-5-one] | 85 | 
19 | C=CC(=O)N1CC2CC(C1)N2c1nc(=O)n2c3c(c(-c4ccc(F)cc4F)c(Cl)cc13)SCC2 [Example 135, 7-(3-acryloyl-3,6-diazabicyclo[3.1.1]heptan-6-yl)-9-chloro-10-(2,4-difluorophenyl)-2,3-dihydro-5H-[1,4]thiazino[2,3,4-ij]quinazolin-5-one] | 0 | 
20 | C=CC(=O)N1CCN(c2nc(=O)n3c4c(c(-n5ccccc5=O)c(Cl)cc24)SCC3)[C@@H](C)C1 [Example 136, 7-((S)-4-acryloyl-2-methylpiperazin-1-yl)-9-chloro-10-(2-oxopyridin-1(2H)-yl)-2,3-dihydro-5H-[1,4]thiazino[2,3,4-ij]quinazolin-5-one] | 89.4 | 
21 | C=CC(=O)N1CCN(c2nc(=O)n3c4c(c(-c5c(F)cc(F)cc5F)c(Cl)cc24)SC[C@H]3COC)[C@@H](C)C1 [Example 137, (R)-7-((S)-4-acryloyl-2-methylpiperazin-1-yl)-9-chloro-3-(methoxymethyl)-10-(2,4,6-trifluorophenyl)-2,3-dihydro-5H-[1,4]thiazino[2,3,4-ij]quinazolin-5-one] | 86.8 | 86.8
22 | C=CC(=O)N1C2CC(=O)CC1CN(c1nc(=O)n3c4c(c(-c5ccc(F)cc5F)c(Cl)cc14)SCC3)C2 [Example 138, 7-(9-acryloyl-7-oxo-3,9-diazabicyclo[3.3.1]nonan-3-yl)-9-chloro-10-(2,4-difluorophenyl)-2,3-dihydro-5H-[1,4]thiazino[2,3,4-ij]quinazolin-5-one] | 95.8 | 
23 | C=CC(=O)N1CCN(c2nc(=O)n3c4c(c(-c5ccc(F)cc5F)c(Cl)cc24)SCC3)C[C@H]1C [Example 139, 7-((R)-4-acryloyl-3-methylpiperazin-1-yl)-9-chloro-10-(2,4-difluorophenyl)-2,3-dihydro-5H-[1,4]thiazino[2,3,4-ij]quinazolin-5-one] | 94.8 | 
24 | C=CC(=O)N1CCN(c2nc(=O)n3c4c(c(-c5ccc(F)cc5F)c(Cl)cc24)SCC3)C[C@@H]1C [Example 140, 7-((S)-4-acryloyl-3-methylpiperazin-1-yl)-9-chloro-10-(2,4-difluorophenyl)-2,3-dihydro-5H-[1,4]thiazino[2,3,4-ij]quinazolin-5-one] | 90.6 | 
25 | C=CC(=O)N1CCN(c2nc(=O)n3c4c(c(-c5ccc(F)cc5F)c(C(F)(F)F)cc24)SCC3)[C@@H](C)C1 [Example 141, 7-((S)-4-acryloyl-2-methylpiperazin-1-yl)-10-(2,4-difluorophenyl)-9-(trifluoromethyl)-2,3-dihydro-5H-[1,4]thiazino[2,3,4-ij]quinazolin-5-one] | 95.7 | 
